Measurements: patent publication US20140134169A1, “Methods of Treating Ovarian Cancer with Dll4 Antagonists” (Regeneron Pharmaceuticals, Inc., priority 2012, published 2014)

Key:
[1] = system: human HCT116 tumor cells (CRC); assay: Growth of human HCT116 tumors in humanized Dll4 SCID mice (5-FU study); type: in vivo
Description: Each mouse was implanted subcutaneously (sc) with 5×10^6 human HCT116 tumor cells (CRC). […] The mice were then treated with hFc, REGN421, 5-FU or combination of REGN421 and 5-FU. A total of 30 mice were divided into 6 groups (n=5 per cohort). The first group was treated sc with hFc at 2 mg/kg; the second group was treated sc with REGN421 at 2 mg/kg; the third and fourth groups were treated ip with 5-FU at 15 and 25 mg/kg, respectively; the fifth group was treated sc with REGN421 at 2 mg/kg and ip with 5-FU at 15 mg/kg; and the sixth group was treated sc with REGN421 at 2 mg/kg and ip with 5-FU at 25 mg/kg. REGN421 was administered every 3-4 days starting on day 22 and mice received three doses total. 5-FU was administered every 3-4 days starting on day 22 and mice received three doses total.
(§1) To assess the effects of REGN421 and 5-FU as single agents or in combination, the changes in tumor size (volume) were measured, beginning three days before the initial REGN421 treatment, and then on the day of each agent treatment (days 22, 26, 29) and thereafter every 3-4 days until tumors reach ˜600 mm^3 in size. In vivo tumor size is calculated using the formula (length×width^2)/2 (FIG. 3 and Table 5).

[2] = system: human VM-Cub1 tumor cells (bladder carcinoma cells); assay: Growth of human VM-Cub1 tumors implanted in humanized Dll4 SCID mice; type: in vivo; conditions: for TGI(%): day 32; for TGD: to 600 mm3
Description: The humanized Dll4 SCID mouse was made by replacing the entire extracellular domain of the mouse Dll4 gene with the corresponding extracellular region of the human Dll4 gene (7 kb) in embryonic stem (ES) cells. Homozygous hDll4 mice were generated and bred into SCID background.
A total of 45 mice were divided into nine groups (n=5 per cohort). The first group was treated subcutaneously (sc) with hFc at 2 mg/kg; the second and third groups were treated sc with REGN421 at 0.5 and 2 mg/kg, respectively; the fourth and fifth groups were treated intraperitoneally (ip) with cisplatin at 0.5 and 2 mg/kg, respectively; the sixth group was treated sc with REGN421 at 0.5 mg/kg and ip with cisplatin at 0.5 mg/kg; the seventh group was treated sc with REGN421 at 0.5 mg/kg and ip with cisplatin at 2 mg/kg; the eighth group was treated sc with REGN421 at 2 mg/kg and ip with cisplatin at 0.5 mg/kg; and the ninth group was treated sc with REGN421 at 2 mg/kg and ip with cisplatin at 2 mg/kg. REGN421 was administered every 3-4 days starting on day 14 and mice received three doses total. Cisplatin was administered every 24 hours starting on day 14; mice received four doses total.
To assess the effects of REGN421 and cisplatin as single agents or in combination treatments, the changes in tumor size were recorded. Tumor growth was measured three days before the initial REGN421 treatment, on the day of each REGN421 treatment (days 14, 17 and 21) and thereafter every 3-4 days until tumors reached ˜600 mm3 in size. In vivo tumor size was calculated using the formula (length×width2)/2 (FIG. 1 and Table 1).
Tumor Growth Inhibition, TGI, was determined by calculating the difference in tumor size for treated (T) versus vehicle control (C) tumor at the day the control cohort was euthanized (i.e., at day 32); TGI=[1−(Tfinal−Tinitial)/(Cfinal−Cinitial)]×100.
(§2) Tumor growth delay, TGD, was assessed as the difference in days between treated (T) versus control (C) tumors when each cohort reached a specified tumor size. The predetermined tumor size for this experiment was 600 mm^3.

[3] = system: human A549 tumor cells (non-small cell lung cancer); assay: Growth of human A549 tumors implanted in humanized Dll4 SCID mice; type: in vivo
Description: as §2
Each mouse was implanted subcutaneously (sc) with 5×10^6 human A549 tumor cells (non-small cell lung cancer or “NSCLC”). […] A total of 36 mice were divided into 6 groups (n=6 per cohort). The first group was treated sc with hFc at 2 mg/kg; the second group was treated sc with REGN421 at 2 mg/kg; the third and fourth groups were treated ip with cisplatin at 2.5 and 4.5 mg/kg, respectively; the fifth group was treated sc with REGN421 at 2 mg/kg and ip with cisplatin at 2.5 mg/kg; and the sixth group was treated sc with REGN421 at 2 mg/kg and ip with cisplatin at 4.5 mg/kg. REGN421 was administered every 3-4 days starting on day 29 and mice received three doses total. Cisplatin was administered every 24 hours starting on day 29 and mice received two doses total.
To assess the effects of REGN421 and cisplatin as single agents or in combination we measured tumor size (volume), beginning three days before the initial REGN421 treatment, on the day of each agent treatment (days 29, 30, 33, 36) and thereafter every 3-4 days until tumors reached ˜600 mm^3 in size.

[4] = system: rat C6 tumor cells (glioblastoma cells); assay: Growth of rat C6 tumors implanted in SCID mice; type: in vivo
Description: Each mouse was implanted subcutaneously (sc) with 1×10^6 rat C6 tumor cells (glioblastoma cells). […] Since these mice expressed mouse Dll4, the Dll4 Ab used in this experiment was prepared in-house, based on the published sequence (WO 2007/143689), and designated as REGN577. […] A total of 30 tumor-bearing male mice were randomized into six groups (N=5). […] Tumor size was calculated using the formula, (length×width2)/2.
TGI and TGD were determined (Table 3).

[5] = system: human MDA-MB-231 breast tumor cells; assay: Growth of human MDA-MB-231 breast tumors implanted in SCID mice
Description: The effect of anti-Dll4 antibody in combination with docetaxel (TAXOTERE®, sanofi-aventis) on tumor growth was evaluated on tumors implanted in Severe Combined Immunodeficiency (SCID) mice. […] After the tumors were established in the mice (tumor size of ˜150-200 mm^3, approximately 45 days after implantation), mice were treated with hFc, docetaxel, Dll4 antibody, or a combination of docetaxel plus Dll4 antibody. A total of 25 tumor-bearing male mice were randomized into five groups (N=5 mice per group). […] Docetaxel and/or Dll4 antibody were administered on the same day. Animals were treated 2 times per week and received a total of 3 doses. Starting from the day of initial treatment, body weight and tumors were measured twice a week until the mice are euthanized. Mice were euthanized when tumors reached ˜600 mm^3 in size. Tumor size was calculated using the formula (length×width^2)/2.
The control tumors reached ˜600 mm^3 and were harvested on day 63.

A2780 cells = assay: A2780 ovarian xenograft (intraperitoneal) tumor growth inhibition; type: in vivo, human; conditions: SCID mice (native murine Dll4); REGN421 2.5 mg/kg 1x/week, mDll4Ab1 5 mg/kg 1x/week, VEGF-Trap 10 mg/kg 2x/week
Description: Ovarian tumor xenograft cells were implanted into humanized Dll4 SCID mice or vendor SCID mice (i.e., SCID mice expressing native murine Dll4). After implantation, mice were treated with REGN421 (anti-human Dll4 antibody, binds to human Dll4), mDll4Ab1 (anti-murine Dll4 antibody, binds to murine Dll4), or a human Fc domain control protein. In one study, mice were treated with VEGF-Trap, mDll4Ab1 or VEGF-Trap plus mDll4Ab1. TOV-112D cells (5×10^6) were implanted subcutaneously into the right flank of humanized Dll4 (n=4) or vendor SCID mice (n=7). Treatment with REGN421 (2.5 mg/kg, 1×/week) or mDll4Ab1 (5 mg/kg, 1×/week) vs. hFc control was initiated one week after tumor cell implantation. Animals were treated for 2 to 3 weeks. A2780 cells (2×10^6) were implanted intraperitoneally into humanized Dll4 or vendor SCID mice (n=4-5). Treatment with REGN421 (2.5 mg/kg, 1×/week) or mDll4Ab1 (5 mg/kg, 1×/week) vs. hFc control was initiated one week after tumor cell implantation. For the A2780 combination study, simultaneous treatment with mDll4Ab1 (5 mg/kg, 1×/week) and VEGF-Trap (10 mg/kg, 2×/week) was initiated one week after tumor cell implantation. A VEGF-Trap single treatment arm was included in this study. Animals bearing A2780 tumors were treated for 4-5 weeks. SKOV-3 cells (5×10^6) in matrigel were implanted subcutaneously and tumor-bearing animals (n=10) were dosed with REGN421 (2.5 mg/kg) and mDll4Ab1 (5 mg/kg) once weekly. OVCAR-3 cells (1×10^7) were implanted subcutaneously into the right flank of vendor SCID mice (n=7). Treatment with mDll4Ab1 (5 mg/kg 1×/week) vs. hFc control was initiated 66 days after tumor cell implantation. Animals were treated for a total of 5 weeks. Tumor growth inhibition (TGI) was measured as detailed above.

human HCT116 tumor cells = assay: Growth of human HCT116 tumors in humanized Dll4 SCID mice (irinotecan study); type: in vivo
Description: Each mouse was implanted subcutaneously (sc) with 5×10^6 human HCT116 tumor cells. […] The mice were then treated with hFc, REGN421, irinotecan or combination of REGN421 and irinotecan. A total of 30 mice were divided into 6 groups (n=5 per cohort). The first group was treated sc with hFc at 2 mg/kg; the second group was treated sc with REGN421 at 2 mg/kg; the third and fourth groups were treated ip with irinotecan at 7.5 and 25 mg/kg, respectively; the fifth group was treated sc with REGN421 at 2 mg/kg and ip with irinotecan at 7.5 mg/kg; and the sixth group was treated sc with REGN421 at 2 mg/kg and ip with irinotecan at 25 mg/kg. REGN421 was administered every 3-4 days starting on day 15 and mice received three doses total. Irinotecan was administered every 3-4 days starting on day 15 and mice received three doses total.
as §1, with “irinotecan” for “5-FU”, “combination treatments,” for “combination,”, “are” for “were”, “starting” for “beginning”, “15, 19, 22)” for “22, 26, 29)”, “(length×width^2)/2.” for “(length×width^2)/2 (FIG. 3 and Table 5).”

[6] = 5-FU 15 mg/kg ip (45 mg/kg total)
[7] = 5-FU 25 mg/kg ip (75 mg/kg total)
[8] = cisplatin 2.5 mg/kg ip (5 mg/kg total)
[9] = cisplatin 4.5 mg/kg ip (9 mg/kg total)
[10] = docetaxel 4.5 mg/kg iv (13.5 mg/kg total)
[11] = docetaxel 6 mg/kg iv (18 mg/kg total)
[12] = irinotecan 7.5 mg/kg ip (22.5 mg/kg total)
[13] = irinotecan 25 mg/kg ip (75 mg/kg total)

O=c1[nH]cc(F)c(=O)[nH]1 [5-FU, 5-fluorouracil]
TGD [1, 6]: 4 days
TGI(%) at Day 39 [1, 6]: 5.6%
TGD [1, 7]: 2 days
TGI(%) at Day 39 [1, 7]: 0%

N.N.[Cl][Pt][Cl] [Cisplatin, cis-diamminedichloroplatinum]
Euthanized ([2]; cisplatin 0.5 mg/kg/dose ip x4): 45 days
TGI(%) ([2]; cisplatin 0.5 mg/kg/dose ip x4): 60.7%
TGI(%) ([2]; cisplatin 0.5 mg/kg/dose ip x4, listed as cisplatin): 61%
TGD ([2]; cisplatin 0.5 mg/kg/dose ip x4): 13 days
Euthanized ([2]; cisplatin 2 mg/kg/dose ip x4): 41 days
TGI(%) ([2]; cisplatin 2 mg/kg/dose ip x4): 53.8%
TGI(%) ([2]; cisplatin 2 mg/kg/dose ip x4, listed as cisplatin): 54%
TGD ([2]; cisplatin 2 mg/kg/dose ip x4): 9 days
TGD [3, 8]: 4 days
TGI (%) at Day 57 [3, 8]: 35%
TGD [3, 9]: 11 days
TGI (%) at Day 57 [3, 9]: 22%

CC(=O)O[C@@]12CO[C@@H]1C[C@H](O)[C@@]1(C)C(=O)[C@H](O)C3=C(C)[C@@H](OC(=O)[C@H](O)[C@@H](NC(=O)OC(C)(C)C)c4ccccc4)C[C@@](O)([C@@H](OC(=O)c4ccccc4)[C@H]21)C3(C)C [Docetaxel, docetaxel]
TGD [4, 10]: 6 days
TGI(%) at Day 25 [4, 10]: 62%
TGD [4, 11]: 7 days
TGI(%) at Day 25 [4, 11]: 70%
TGD [5, 10]: 4 days
TGI(%) at Day 25 [5, 10]: 37%
TGD [5, 11]: 4 days
TGI(%) at Day 25 [5, 11]: 52%

VEGF-Trap: VEGF receptor-based chimeric molecule, SEQ ID NO:121 [reference compound]
% TGI (A2780 cells): 88%

CCc1c2c(nc3ccc(OC(=O)N4CCC(N5CCCCC5)CC4)cc13)-c1cc3c(c(=O)n1C2)COC(=O)[C@]3(O)CC [Irinotecan, irinotecan]
TGD (human HCT116 tumor cells; [12]): 8 days
TGI(%) at Day 39 (human HCT116 tumor cells; [12]): 71.2%
TGD (human HCT116 tumor cells; [13]): 16 days
TGI(%) at Day 39 (human HCT116 tumor cells; [13]): 100.5%
